According to ChEMBL document CHEMBL1932991, “Novel ATP competitive MK2 inhibitors with potent biochemical and cell-based activity throughout the series” (Bioorg Med Chem Lett, 2012):

Tests used:
[1] = target: T1, MAP kinase-activated protein kinase 2 (Homo sapiens, UniProt P49137); test: Inhibition of MK2 using Fluo-betaA-11A NeoMPS as substrate pre-incubated for 30 mins before substrate addition measured after 2 hrs by IMAP assay
THP-1 = test: Inhibition of LPS-induced TNFalpha production in human THP1 cells pre-incubated for 30 mins prior to LPS-induction measured after 4 hrs by ELISA; type: functional, cell-based
[2] = target: T1, MAP kinase-activated protein kinase 2; test: Inhibition of MK2-mediated HSP27 phosphorylation in LPS-stimulated human THP1 cells pre-incubated for 60 mins prior to LPS-induction measured after 60 mins by multi-spot assay; type: cell-based, THP-1
PBMC = test: Inhibition of LPS-induced TNFalpha production in human PBMC pre-incubated for 30 mins prior to LPS-induction measured after 4 hrs by ELISA; type: functional, cell-based
[3] = Dissociation constant, pKa of the compound at pH 7.4; type: physicochemical
[4] = Plasma protein binding in human; type: ADME, cell-free; details: read-out: PPB (converted)
[5] = Permeability of the compound by PAMPA; type: ADME; details: for Papp: read-out: permeability

T1 sequence (P49137 whole entry): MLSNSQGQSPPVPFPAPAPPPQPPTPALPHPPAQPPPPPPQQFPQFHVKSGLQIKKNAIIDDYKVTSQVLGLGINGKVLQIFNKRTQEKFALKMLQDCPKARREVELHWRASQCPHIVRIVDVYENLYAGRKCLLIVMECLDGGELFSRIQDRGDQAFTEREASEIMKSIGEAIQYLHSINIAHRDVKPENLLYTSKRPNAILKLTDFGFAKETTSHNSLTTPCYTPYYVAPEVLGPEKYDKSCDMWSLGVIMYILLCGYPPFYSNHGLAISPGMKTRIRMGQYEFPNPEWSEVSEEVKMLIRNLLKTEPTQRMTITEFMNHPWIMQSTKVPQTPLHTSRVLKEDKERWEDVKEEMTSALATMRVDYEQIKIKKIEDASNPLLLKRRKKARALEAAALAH

Compound | EC50 [1] | EC50 (THP-1; Homo sapiens, THP-1) | EC50 [2] | EC50 (PBMC; Homo sapiens, PBMC) | pKa [3] | fraction unbound [4] | Papp [5] | EC50 (THP-1; thp-1) | EC50 (PBMC; pbmc) | permeability [5]
Cc1ccc(C(=O)Nc2nccc(-c3cc4c([nH]3)C3(CCNCC3)CNC4=O)n2)cc1C | 0.0031 µM | 3.4 µM | – | – | – | – | – | – | – | –
Cc1ccc(C(=O)Nc2cc(-c3cc4c([nH]3)C3(CCNCC3)CNC4=O)ccn2)cc1C | 0.001 µM | 0.23 µM | 0.35 µM | 0.89 µM | – | – | – | – | – | –
O=C(Nc1nccc(-c2cc3c([nH]2)C2(CCNCC2)CNC3=O)n1)c1ccc2ccccc2c1 | 0.0051 µM | 3.4 µM | – | – | – | – | – | – | – | –
O=C(Nc1cc(-c2cc3c([nH]2)C2(CCNCC2)CNC3=O)ccn1)c1ccc2ccccc2c1 | 0.00072 µM | 0.32 µM | 0.28 µM | 0.23 µM | 9.2 | 0.003 | – | – | – | –
O=C1NCC2(CCNCC2)c2[nH]c(-c3ccnc(NC(=O)c4cccc5ccccc45)n3)cc21 | 0.014 µM | > 10 µM | – | – | – | – | – | – | – | –
O=C1NCC2(CCNCC2)c2[nH]c(-c3ccnc(NC(=O)c4cccc5ccccc45)c3)cc21 | 0.00096 µM | 0.49 µM | 0.52 µM | 0.65 µM | – | – | – | – | – | –
O=C(Nc1nccc(-c2cc3c([nH]2)C2(CCNCC2)CNC3=O)n1)c1ccc(F)cc1 | 0.015 µM | 7.9 µM | – | – | – | – | – | – | – | –
O=C(Nc1cc(-c2cc3c([nH]2)C2(CCNCC2)CNC3=O)ccn1)c1ccc(F)cc1 | 0.0016 µM | 1.3 µM | 3.7 µM | 1.4 µM | – | – | – | – | – | –
Cc1ccc(C(=O)Nc2cc(-c3cc4c([nH]3)C3(CCN(C)CC3)CNC4=O)ccn2)cc1C | 0.0023 µM | 0.72 µM | 0.92 µM | – | – | – | – | – | – | –
CN1CCC2(CC1)CNC(=O)c1cc(-c3ccnc(NC(=O)c4ccc5ccccc5c4)c3)[nH]c12 | 0.0026 µM | 1.1 µM | 0.73 µM | 0.07 µM | 8.3 | 0.005 | – | – | – | –
O=C(Nc1cc(-c2cc3c([nH]2)C2(CCNCC2)CNC3=O)ccn1)c1cccc(F)c1 | 0.0011 µM | 0.78 µM | 0.68 µM | 0.15 µM | – | – | 0.6 ×10⁻⁶ cm/s | – | – | –
CN1CCC2(CC1)CNC(=O)c1cc(-c3ccnc(NC(=O)c4cccc(F)c4)c3)[nH]c12 | 0.0025 µM | 0.54 µM | 0.64 µM | 0.03 µM | – | – | – | – | – | –
O=C(Nc1cc(-c2cc3c([nH]2)C2(CCNCC2)CNC3=O)ccn1)c1cccc(OC(F)(F)F)c1 | 0.0015 µM | 0.08 µM | 0.13 µM | 0.16 µM | 9.1 | 0.042 | – | – | – | –
CN1CCC2(CC1)CNC(=O)c1cc(-c3ccnc(NC(=O)c4cccc(OC(F)(F)F)c4)c3)[nH]c12 | 0.0027 µM | 1 µM | 0.83 µM | 0.05 µM | 8.4 | 0.027 | – | – | – | –
O=C(Nc1cc(-c2cc3c([nH]2)C2(CCNCC2)CNC3=O)ccn1)c1ccc(C(F)(F)F)cc1 | 0.0016 µM | 0.66 µM | 1.3 µM | 1.6 µM | – | – | – | – | – | –
O=C(Nc1cc(-c2cc3c([nH]2)C2(CCNCC2)CNC3=O)ccn1)c1ccccn1 | 0.0014 µM | 0.72 µM | 0.55 µM | 0.26 µM | – | – | – | – | – | –
O=C(Nc1cc(-c2cc3c([nH]2)C2(CCNCC2)CNC3=O)ccn1)c1ccncc1 | 0.0026 µM | > 10 µM | > 10 µM | 2.6 µM | – | – | – | – | – | –
Cc1ccc(C(=O)Nc2cc(-c3cc4c([nH]3)C3(CCCNC3)CNC4=O)ccn2)cc1C (racemic) | 0.0081 µM | – | 0.69 µM | – | – | – | – | 0.46 µM | 0.04 µM | –
O=C(Nc1cc(-c2cc3c([nH]2)C2(CCCNC2)CNC3=O)ccn1)c1ccc2ccccc2c1 (racemic) | 0.0076 µM | – | 1.1 µM | – | – | – | – | 0.78 µM | 0.07 µM | –

Compound | EC50 [1] | EC50 (THP-1; Homo sapiens, THP-1) | EC50 [2] | EC50 (PBMC; Homo sapiens, PBMC) | pKa [3] | fraction unbound [4] | Papp [5] | EC50 (THP-1; thp-1) | EC50 (PBMC; pbmc) | permeability [5]
O=C1NCC2(CCCNC2)c2[nH]c(-c3ccnc(NC(=O)c4cccc5ccccc45)c3)cc21 (racemic) | 0.0051 µM | 0.22 µM | 1.1 µM | 0.39 µM | – | – | 0.1 ×10⁻⁶ cm/s | – | – | –
O=C(Nc1cc(-c2cc3c([nH]2)C2(CCCNC2)CNC3=O)ccn1)c1ccc(F)cc1 (racemic) | 0.0089 µM | – | 0.87 µM | – | – | – | – | 0.32 µM | – | 0.5 ×10⁻⁶ cm/s
O=C(Nc1cc(-c2cc3c([nH]2)C2(CCCNC2)CNC3=O)ccn1)c1cccc(F)c1 (racemic) | 0.0062 µM | 0.56 µM | – | 0.03 µM | – | – | 1.9 ×10⁻⁶ cm/s | – | – | –
O=C(Nc1cc(-c2cc3c([nH]2)C2(CCCNC2)CNC3=O)ccn1)c1ccc(C(F)(F)F)cc1 (racemic) | 0.0091 µM | 1.3 µM | 1.2 µM | 0.48 µM | – | – | – | – | – | –
O=C(Nc1cc(-c2cc3c([nH]2)C2(CCCNC2)CNC3=O)ccn1)c1ccccn1 (racemic) | 0.0042 µM | 0.48 µM | 0.66 µM | 0.13 µM | – | – | 0.2 ×10⁻⁶ cm/s | – | – | –
O=C(Nc1cc(-c2cc3c([nH]2)C2(CCCNC2)CNC3=O)ccn1)c1cc(F)cc(F)c1 (racemic) | 0.0025 µM | 1.1 µM | 0.59 µM | 0.14 µM | – | – | 6.3 ×10⁻⁶ cm/s | – | – | –
O=C(Nc1cc(-c2cc3c([nH]2)C2(CCCNC2)CNC3=O)ccn1)c1cccc(C(F)(F)F)c1 (racemic) | 0.0033 µM | 0.85 µM | 0.59 µM | 0.14 µM | – | – | – | – | – | –
Cc1ccc(C(=O)Nc2cc(-c3cc4c([nH]3)C3(CCNC3)CNC4=O)ccn2)cc1C (racemic) | 0.00071 µM | 0.34 µM | 0.24 µM | 0.15 µM | – | – | 0.2 ×10⁻⁶ cm/s | – | – | –
O=C(Nc1cc(-c2cc3c([nH]2)C2(CCNC2)CNC3=O)ccn1)c1ccc2ccccc2c1 (racemic) | 0.00062 µM | 1.7 µM | 0.39 µM | – | 8.5 | 0.002 | – | – | – | –
O=C(Nc1cc(-c2cc3c([nH]2)C2(CCNC2)CNC3=O)ccn1)c1ccc(F)cc1 (racemic) | 0.0013 µM | 1.1 µM | 0.84 µM | 0.2 µM | – | – | – | – | – | –
O=C(Nc1cc(-c2cc3c([nH]2)C2(CCNC2)CNC3=O)ccn1)c1cccc(F)c1 (racemic) | 0.0019 µM | 1.1 µM | 0.48 µM | 0.17 µM | – | – | 0.6 ×10⁻⁶ cm/s | – | – | –
O=C(Nc1cc(-c2cc3c([nH]2)C2(CCNC2)CNC3=O)ccn1)c1ccccn1 (racemic) | 0.0041 µM | 3.9 µM | 0.66 µM | – | – | – | – | – | – | –
O=C(Nc1cc(-c2cc3c([nH]2)C2(CCCNC2)CNC3=O)ccn1)c1ccc2ccccc2c1 (single isomer, unassigned) | 0.129 µM | – | – | – | 8.2 | 0.004 | – | – | – | –
O=C(Nc1cc(-c2cc3c([nH]2)C2(CCCNC2)CNC3=O)ccn1)c1ccc(F)cc1 (single isomer, unassigned; isomer 2) | 0.031 µM | – | 7.4 µM | – | – | – | – | > 10 µM | 1.6 µM | –
O=C(Nc1cc(-c2cc3c([nH]2)C2(CCCNC2)CNC3=O)ccn1)c1ccc2ccccc2c1 (single isomer, unassigned; stereoisomer 1) | 0.0025 µM | 0.51 µM | 0.53 µM | – | – | – | – | – | 0.17 µM | –
Cc1ccc(C(=O)Nc2cc(-c3cc4c([nH]3)C3(CCCNC3)CNC4=O)ccn2)cc1C (single isomer, unassigned; stereoisomer 2) | 0.032 µM | – | 5.3 µM | – | – | – | 1 ×10⁻⁶ cm/s | 8.5 µM | 1.2 µM | –
Cc1ccc(C(=O)Nc2cc(-c3cc4c([nH]3)C3(CCCNC3)CNC4=O)ccn2)cc1C (stereo in doubt; 3dS1) | 0.0055 µM | – | – | – | – | – | – | 0.65 µM | – | –
O=C(Nc1cc(-c2cc3c([nH]2)C2(CCCNC2)CNC3=O)ccn1)c1ccc(F)cc1 (stereo in doubt; 6dS1) | 0.0024 µM | – | 0.32 µM | – | – | – | – | 0.31 µM | 0.07 µM | 1.1 ×10⁻⁶ cm/s
